Laboratory results published in patent US6103709A (priority 1998, dated 2000).

How the values were obtained:
rapid responses (VDRmem) = experiment: Antagonist function (summary classification); conditions: Yes/No, Tables 1 and 6
VDRnuc = experiment: Genomic response (summary classification); conditions: Yes/No, Tables 1 and 6
[1] = test system: vitamin D-deficient chick; experiment: Bone Ca2+ mobilizing activity (BCM) in vitamin D-deficient chick; format: in vivo; conditions: i.m.; for Classic Vit D Responses BCM: relative to 100 pmol 1α,25(OH)2 D3 = 100%, 12 h before assay; for BCM (in words): vitamin D-deficient chick
Procedure: The bone calcium mobilizing (BCM) assay is also conducted in the vitamin D-deficient chick. The BCM assay determines the relative ability of the tested analog to mobilize bone calcium. The natural hormone 1α,25(OH)2 D3 is very potent in the BCM assay. For example, when 1α,25(OH)2 D3 in inappropriate amounts are used as a drug in human patients, the patient may become hypercalcemic and eventually hypercalciuria with nephrolithiasis and renal failure may develop. The BCM assay was used to determine the relative activity of the analogs of the invention to stimulate bone Ca^2+ mobilization.
(§1) Results of the testing of the analogs of the invention in vivo by the ICA and IBM assays are shown in FIG. 9 which illustrates the capability of analogs LO, EV and HR to stimulate intestinal Ca^2+ absorption (ICA) and bone Ca^2+ mobilizing activity (BCM). In this study, the analogs of 1α,25(OH) were given i.m. to vitamin D-deficient chicks 12 hours before the assay began. The activity produced by 100 pmol of 1α,25(OH)2 D3 was set to be 100% for both ICA and BCM. The dose of the analogs required to achieve a biological response for either ICA or BCM equivalent to the 100 pmol dose of 1α,25(OH)2 D3 was calculated and converted to a percentage. Results are expressed as mean +SE of groups of seven chicks. Each assay included a negative control (-D), that is no vitamin D was present, and a positive control, where vitamin D3 (+D3) was present in 3.25 nmol. […] 1α,25(OH)2 D3 and analogs LO [14α,15α-methano-1α,25(OH)2 D3 ], EV [22-(m(dimethylhydroxymethyl)phenyl)-23,24,25,26,27-pentanor-1α-OH-D3 ] and HR [(22R)-1,25(OH)2 -22,23-diene-D3 ] were administered in 0.0065, 0.065, 0.65 and 6.5 nmol as shown.
(§2) In Vivo Assays of Intestinal Calcium Absorption and Bone Calcium Mobilization
(§3) This example describes assays used for determination of analogs biological activity in intestinal calcium absorption (ICA) and bone calcium mobilization (BCM) assays.
(§4) ICA and BCM were measured in vivo in the vitamin D-deficient chick model system according to Biochem. Pharmacol., 18: 2347 (1969).
(§5) Twelve hours before assay, the chickens, which had been placed on a zero-calcium diet 48 h before assay, were injected intramuscularly with the vitamin metabolite 1α,25(OH)2 D3 or analog (1-10,000 pmoles) dissolved in 0.1 mL of ethanol/1,2-propanediol (1:1, v/v). At the time of assay, 4.0 mg of ^40 Ca^2+ +5 μCi of ^45 Ca^2+ (New England Nuclear) were placed in the duodenum of the birds lightly anesthetized with ether. After 30 min, the birds were decapitated and the blood was collected.
BCM activity was estimated from the increase of total serum calcium concentration, as determined by atomic absorption spectrophotometry.

[2] = test system: vitamin D-deficient chick; experiment: Intestinal Ca2+ absorption (ICA) in vitamin D-deficient chick; format: in vivo; conditions: i.m.; for Classic Vit D Responses ICA: relative to 100 pmol 1α,25(OH)2 D3 = 100%, 12 h before assay; for ICA (in words): vitamin D-deficient chick
Procedure: A primary fundamental physiological property of vitamin D and particularly 1α,25(OH)2 D3 is its ability to stimulate the intestinal absorption of calcium and facilitate the availability of dietary calcium to the organism. Intestinal absorption of the calcium is measured by the intestinal calcium absorption (ICA) assay, developed in the model of vitamin-D deficient chicks. The ICA assay was used to determine the relative capability of the tested analog to stimulate intestinal Ca^2+ absorption.
as §1, §2, §3, §4, §5
The radioactivity content, which is a measure of ICA, of 0.2 mL of serum was measured in a liquid scintillation counter (Beckman LS8000) to determine the amount of ^45 Ca^2+ absorbed.

VDRmem = experiment: Rapid response (summary classification); conditions: for Rapid Response: Yes/No, Tables 1 and 6
[3] = test system: intestinal Ca2+ transport in perfused chick duodena (transcaltachia); experiment: Transcaltachia assay (rapid stimulation of 45Ca2+ transport in perfused duodena); conditions: for Rapid Trans-Caltachia, relative to 1α,25(OH)2 D3: 1α,25(OH)2 D3 = 100; for stimulation of transcaltachia (in words, FIG. 11): perfusion with 300 pM or 650 pM analog, reference 650 pM 1α,25(OH)2 D3, within first four minutes
Procedure: Duodenal loops from normal, vitamin D-replete chicks were lumenally perfused with ^45 Ca^2+ (5 uCi/ml of buffer). To establish basal transport rates, celiac artery of controls were perfused with control medium for the first 20 min. The duodena were then either re-exposed to control medium containing the vehicle ethanol (0.005%, final concentration) through the celiac artery, or vascularly perfused with 300 pM or 650 pM agonist analogs JM or JN or with 650 pM of a control reference compound 1α,25(OH)2 D3. The venous effluent was collected at 2 min intervals for liquid scintillation spectrophotometry of the ^45 Ca^2+. […] Values represent mean ±SEM for n=4 in each group.
The data shown in FIG. 13 are the mean ±SEM from 4-5 duodena. […] Open circles represent the negative control receiving no treatment with 1α,25(OH)2 D3 or analog. […] Data represent the ratio of treated to basal values ±SEM extracted from a time-course plot (as in panel A) at 32 minutes.
This example describes the assay used for testing rapid response transcaltachia described in J. Biol. Chem, 268: 13811-13819 (1993).
White Leghorn cockerels (Hyline International, Lakeview, Calif.) were obtained on the day of hatch and maintained on a vitamin D-supplemented diet (1.0% calcium and 1.0% phosphorus; O. H. Kruse Grain and Milling, Ontario, Calif.) for 5-6 weeks to prepare normal vitamin D3 -replete chicks for use in the transcaltachia studies.
Measurements of ^45 Ca^2+ transport were carried out in perfused chick duodena. Normal vitamin D-replete chicks weighing approximately 500 g were anesthetized with 0.3 ml per 100 g Chloropent (Fort Dodge, Iowa), and the duodenal loop was surgically exposed. The celiac vein and blood vessels branching off from the celiac artery were ligated before cannulation of the celiac artery itself, and vascular perfusion was immediately initiated. Both the celiac artery and vein of the duodena were perfused with modified Grey's balanced salt solution (GBSS) +0.9 mM Ca which was oxygenated with 95% O2 and 5% CO2. A basal transport rate was established by perfusion with control medium for 20 minutes after the intestinal lumen was filled with ^45 Ca^2+. The tissue was then exposed to 1α,25(OH)2 D3 or analogs or reexposed to control medium for an additional 40 minutes. The vascular perfusate was collected at 2 min intervals during the last 10 min of the basal and during the entire treatment period. Duplicate 100 μl aliquots were taken for determination of the ^45 Ca^2+ levels by liquid scintillation spectrometry.

Structure (SMILES)	Antagonist (rapid responses (VDRmem))	Genomic Response (VDRnuc)	Classic Vit D Responses BCM [1]	Classic Vit D Responses ICA [2]	Rapid Response (VDRmem)	BCM (in words) [1]	ICA (in words) [2]	Rapid Trans-Caltachia, relative to 1α,25(OH)2 D3 [3]	genomic and/or rapid responses elicited (in words) (VDRmem)	stimulation of transcaltachia (in words, FIG. 11) [3]
CC1=C(/C=C\C2=CCC[C@@]3(C)[C@@H]2CC[C@@H]3[C@H](C)CCCC(C)(C)O)C[C@@H](O)C[C@@H]1O [GF]	No	Yes	< 0.1%	1.5%	Yes					
C=C1CC[C@H](O)C/C1=C/C=C1\CCC[C@]2(C)[C@@H]([C@H](C)Cc3cccc(O)c3)CC[C@@H]12 [JY]	No	Yes	< 0.05%	< 0.05%	Yes					
C=C1/C(=C\C=C2/CCC[C@]3(C)[C@@H]([C@H](C)Cc4cccc(O)c4)CC[C@@H]23)C[C@@H](O)C[C@@H]1O [DE]	No	Yes	1.0%	0.3%	Yes	show stimulating activity in both ICA and BCM assays	show stimulating activity in both ICA and BCM assays			
C[C@H](CCCC(C)(C)O)[C@H]1CC[C@H]2C3=CC=C4C[C@@H](O)C[C@H](O)[C@]4(C)[C@@H]3CC[C@]12C [JP]	No	No	0.8%	0.5%	Yes			60%	elicit solely rapid responses	
C=C1/C(=C\C=C2/CCC[C@]3(C)[C@@H]([C@H](C)Cc4cccc(C(C)(C)O)c4)CC[C@@H]23)C[C@@H](O)C[C@@H]1O [EV]	No	Yes	8%	30%	Yes	show stimulating activity in both ICA and BCM assays	show stimulating activity in both ICA and BCM assays			
CC1=C(C=C=C2CCC[C@]3(C)[C@@H]([C@H](C)CCCC(C)(C)O)CC[C@@H]23)C[C@@H](O)C[C@@H]1O [JW]	No	Yes	0.3%	0.05%	Yes					
C=C1/C(=C\C=C2/CCC[C@]3(C)[C@@H]([C@H](C)C=C=CC(C)(C)O)CC[C@@H]23)C[C@@H](O)C[C@@H]1O [HQ]	No	Yes	1.0%	2.5%	Yes					
C=C1/C(=C\C=C2/CCC[C@]3(C)[C@@H]([C@H](C)C=C=CC(C)(C)O)CC[C@@H]23)C[C@@H](O)C[C@@H]1O [HR]	No	Yes	0.6%	12%	Yes					
C[C@H](CCCC(C)(C)O)[C@H]1CC[C@H]2C3=CC=C4C[C@@H](O)C[C@H](O)[C@@]4(C)[C@H]3CC[C@]12C [JO]	No	No	0.03%	0.6%	Yes			50%	elicit solely rapid responses	
C[C@H](CCCC(C)(C)O)[C@H]1CC[C@H]2C3=CC=C4C[C@@H](O)C[C@H](O)[C@]4(C)[C@H]3CC[C@]12C [JM]	No	No	0.8%	1.8%	Yes			60%	elicit solely rapid responses	comparable or better than the reference compound
CC1=C(C=C=C2CCC[C@]3(C)[C@@H]([C@H](C)CCCC(C)(C)O)CC[C@@H]23)C[C@@H](O)C[C@@H]1O [JV]	No	Yes	0.02%	0.02%	Yes					
C[C@H](CCCC(C)(C)O)[C@H]1CC[C@H]2C3=CC=C4C[C@@H](O)C[C@H](O)[C@@]4(C)[C@@H]3CC[C@]12C [JN]	No	No	1.0%	2.1%	Yes			105%	elicit solely rapid responses	comparable or better than the reference compound
C=C1CC[C@H](O)C/C1=C/C=C1\CCC[C@]2(C)[C@@H]([C@H](C)Cc3ccc(O)cc3)CC[C@@H]12 [JX]	No	Yes	< 0.05%	< 0.05%	Yes					
C=C1/C(=C\C=C2/CCC[C@]3(C)[C@@H]([C@H](C)Cc4ccc(O)cc4)CC[C@@H]23)C[C@@H](O)C[C@@H]1O [DF]	No	Yes	0.08%	0.04%	Yes					
C=C1/C(=C\C=C2/CCC[C@]3(C)[C@@H]([C@H](C)CCCC(C)(C)O)C[C@@H]4C[C@@]243)C[C@@H](O)C[C@@H]1O [LO]	No	Yes		30%	Yes	highly effective stimulator of bone Ca^2+ mobilizing activity (BCM)	reasonable stimulator of intestinal Ca^2+ absorption (ICA)			
